{"source": "paper PMC4382466", "about": "(Toxicologic pathology, 2014)", "key": {"γH2AX [1]": {"system": "γH2AX", "assay": "γH2AX immunofluorescence staining of bone marrow", "type": "in vivo, Fischer 344 rats"}, "dogs": {"system": "dogs", "conditions": "two times the mouse LD50; ref NationalTechnicalInformationService; cited from earlier work"}, "rats": {"system": "rats", "conditions": "one-tenth the mouse LD10, ref NationalTechnicalInformationService; cited from earlier work"}, "Fischer 344 rats [2]": {"system": "Fischer 344 rats", "conditions": "rat, in vivo"}, "γH2AX [3]": {"system": "γH2AX", "assay": "γH2AX immunofluorescence staining of kidney sections", "type": "in vivo, Fischer 344 rats", "conditions": "five imaged fields, one rat/sex/group"}, "Fischer 344 rats [4]": {"system": "Fischer 344 rats", "conditions": "rat, in vivo", "remark": "listed apart in the source"}, "Fischer 344 rats [5]": {"system": "Fischer 344 rats", "assay": "Kidney and urinary bladder histopathology", "type": "in vivo", "conditions": "6 animals"}, "[6]": {"parameters": "species or system Fischer 344 rats", "conditions": "in vivo, po"}, "Fischer 344 rats [7]": {"system": "Fischer 344 rats", "assay": "Clinical signs and body weights", "type": "in vivo", "conditions": "n=6/sex/group"}, "Fischer 344 rats [8]": {"system": "Fischer 344 rats", "conditions": "rat, in vivo", "remark": "listed apart in the source"}, "Fischer 344 rats [9]": {"system": "Fischer 344 rats", "assay": "Mesna as mitigating co-treatment of batracylin-induced toxicity", "conditions": "male rats, mesna study, Day 5"}, "[10]": {"conditions": "oral batracylin 590 mg/m^2; ref Ames et al., 1991; cited from earlier work"}, "[11]": {"conditions": "male, Fischer 344, rat, 16 mg/kg"}, "[12]": {"conditions": "male, Fischer 344, rat, 32 mg/kg"}}, "note": "Read-outs that look alike come from different tables or passages of the source."}
{"compound": "Nc1ccc2c(c1)CN1C(=O)c3ccccc3C1=N2", "note": "[batracylin, 8-aminoisoindolo[1,2-b]quinazolin-12(10H)-one]", "values": [{"measurement": "Bone marrow cellular nuclei γH2AX positive", "setting": "γH2AX [1]; 4 of 6 low-dose females (16 mg/kg)", "value": "Less than 0.5%"}, {"measurement": "Bone marrow cellular nuclei γH2AX positive", "setting": "γH2AX [1]; all 6 low-dose males (16 mg/kg)", "value": "Less than 0.5%"}, {"measurement": "Toxicity of oral batracylin in dogs", "setting": "dogs", "value": "only slight toxicity"}, {"measurement": "Toxicity of oral batracylin in rats", "setting": "rats", "value": "lethal"}, {"measurement": "Protein casts, severity", "setting": "Fischer 344 rats [2]", "value": "mild to moderate"}, {"measurement": "Tubular dilation, severity", "setting": "Fischer 344 rats [2]", "value": "mild"}, {"measurement": "Urothelial atrophy, severity", "setting": "Fischer 344 rats [2]", "value": "mild to moderate"}, {"measurement": "Urothelial vacuolation, severity", "setting": "Fischer 344 rats [2]", "value": "minimal to mild"}, {"measurement": "Nuclei γH2AX positive, renal cortex", "setting": "γH2AX [3]; female rat, 16 mg/kg batracylin", "value": 22, "unit": "%"}, {"measurement": "Nuclei γH2AX positive, renal cortex", "setting": "γH2AX [3]; female rat, 32 mg/kg batracylin", "value": 15, "unit": "%"}, {"measurement": "Nuclei γH2AX positive, renal cortex", "setting": "γH2AX [3]; male rat, 16 mg/kg batracylin", "value": 13, "unit": "%"}, {"measurement": "Nuclei γH2AX positive, renal cortex", "setting": "γH2AX [3]; male rat, 32 mg/kg batracylin", "value": 29, "unit": "%"}, {"measurement": "Lymphocytes, % of the total WBC population", "setting": "Fischer 344 rats [4]", "value": 19, "unit": "%"}, {"measurement": "Neutrophils, % of the total WBC population", "setting": "Fischer 344 rats [4]", "value": 78, "unit": "%"}, {"measurement": "Kidney: non-inflammatory tubular degeneration, severity (incidence)", "setting": "Fischer 344 rats [5]; 16 mg/kg/day po x4 days, females", "value": "Mild (4), Moderate (2)"}, {"measurement": "Kidney: non-inflammatory tubular degeneration, severity (incidence)", "setting": "Fischer 344 rats [5]; 16 mg/kg/day po x4 days, males", "value": "Mild (6)"}, {"measurement": "Kidney: non-inflammatory tubular degeneration, severity (incidence)", "setting": "Fischer 344 rats [5]; 32 mg/kg/day po x4 days, females", "value": "Moderate (4), Marked (2)"}, {"measurement": "Kidney: non-inflammatory tubular degeneration, severity (incidence)", "setting": "Fischer 344 rats [5]; 32 mg/kg/day po x4 days, males", "value": "Moderate (6)"}, {"measurement": "AUC(0-inf)", "setting": "[6]; [11]", "value": 118, "unit": "ng·h/mL"}, {"measurement": "AUC(0-t)", "setting": "[6]; [11]", "value": 98.3, "unit": "ng·h/mL"}, {"measurement": "Cmax", "setting": "[6]; [11]", "value": 11.1, "unit": "ng/mL"}, {"measurement": "Tmax", "setting": "[6]; [11]", "value": 4, "unit": "h"}, {"measurement": "k el", "setting": "[6]; [11]", "value": "4.83e-05", "unit": "s⁻¹"}, {"measurement": "half-life", "setting": "[6]; male, Fischer 344, rat, 16 mg/kg, Half-life", "value": 4, "unit": "h"}, {"measurement": "AUC(0-inf)", "setting": "[6]; [12]", "value": 144, "unit": "ng·h/mL"}, {"measurement": "AUC(0-t)", "setting": "[6]; [12]", "value": 112, "unit": "ng·h/mL"}, {"measurement": "Cmax", "setting": "[6]; [12]", "value": 11.8, "unit": "ng/mL"}, {"measurement": "Tmax", "setting": "[6]; [12]", "value": 4, "unit": "h"}, {"measurement": "half-life", "setting": "[6]; [12]", "value": 11.1, "unit": "h"}, {"measurement": "k el", "setting": "[6]; [12]", "value": "1.72e-05", "unit": "s⁻¹"}, {"measurement": "half-life", "setting": "[6]; male, Fischer 344, rat, 32 mg/kg, Half-life", "value": 11, "unit": "h"}, {"measurement": "half-life", "setting": "[6]; male, Fischer 344, rat, 32 mg/kg, half-life", "value": "4 to 11", "unit": "h"}, {"measurement": "Rats displaying evidence of toxicity (clinical signs)", "setting": "Fischer 344 rats [7]; Day 3, high-dose group (32 mg/kg/day)", "value": "all of the rats"}, {"measurement": "Rats displaying evidence of toxicity (clinical signs)", "setting": "Fischer 344 rats [7]; Day 3, low-dose group (16 mg/kg/day)", "value": "a third of the rats"}, {"measurement": "Incidence of visibly red urine", "setting": "Fischer 344 rats [8]", "value": "4 of the 6"}, {"measurement": "Non-inflammatory tubular degeneration, severity", "setting": "Fischer 344 rats [9]", "value": "moderate"}, {"measurement": "Tubular epithelial regeneration, severity", "setting": "Fischer 344 rats [9]", "value": "mild"}]}
{"compound": "N-acetylbatracylin [NAB]", "values": [{"measurement": "increase of AUC0-24 hr for a 2-fold increase in dose", "setting": "[6]; rat", "value": 2.9, "unit": "fold"}, {"measurement": "AUC0-24", "setting": "[6]; rat, 16 mg/kg", "value": 15150, "unit": "ng·h/mL"}, {"measurement": "AUC0-∞", "setting": "[6]; rat, 16 mg/kg", "value": 15240, "unit": "ng·h/mL"}, {"measurement": "Cmax", "setting": "[6]; rat, 16 mg/kg", "value": 2507, "unit": "ng/mL"}, {"measurement": "Kel", "setting": "[6]; rat, 16 mg/kg", "value": 0.755, "unit": "h⁻¹"}, {"measurement": "Tmax", "setting": "[6]; rat, 16 mg/kg", "value": 4, "unit": "h"}, {"measurement": "AUC0-24", "setting": "[6]; rat, 32 mg/kg", "value": 44620, "unit": "ng·h/mL"}, {"measurement": "AUC0-∞", "setting": "[6]; rat, 32 mg/kg", "value": 45170, "unit": "ng·h/mL"}, {"measurement": "Cmax", "setting": "[6]; rat, 32 mg/kg", "value": 7214, "unit": "ng/mL"}, {"measurement": "Kel", "setting": "[6]; rat, 32 mg/kg", "value": 0.108, "unit": "h⁻¹"}, {"measurement": "NAB AUC0-24 hr, times greater than the corresponding value for batracylin", "setting": "[6]; rat, 32 mg/kg", "value": 398, "unit": "times"}, {"measurement": "NAB Cmax, times greater than the corresponding value for batracylin", "setting": "[6]; rat, 32 mg/kg", "value": 611, "unit": "times"}, {"measurement": "Tmax", "setting": "[6]; rat, 32 mg/kg", "value": 4, "unit": "h"}, {"measurement": "Systemic levels of NAB, times greater in the rat than in the mouse", "setting": "[10]", "value": "approximately 9 times"}]}
